Measured values published in patent publication US20050209157A1, “Short bioactive peptides and methods for their use” (priority 2001, published 2005).
“Also recorded” adds a separate entry of the source. Where two headings read alike, the source gives them in different places. No end group written: not given here.

Legend:
cancer cell lines = assay: Anti-cancer assays, MTT, summary over the cancer cell lines; format: cell-based; details: X = preferred
in vitro [1] = format: cell-based, human; details: human, human red blood cells
in vitro [2] = details: human, WI38 normal lung fibroblast cells
Description: (§3) Viability of cells is determined by the dye response. In the following procedure, approximately 1.5×10^4 cells per well were added and viability was determined with the cells in a semi-confluent state. The assay was performed in a 96-well microtiter plate. After addition of peptide, the plate was set for 24 hours. MTT (5 mg/ml in phenol red-free RPMI-1640, 20 μl) was added to each well including positive control wells untreated with peptide. The plate was incubated at 37° C. for 4 hours. The liquid contents of each well was removed, and isopropanol with 0.1 M HCl (100 μl) was added to each well. The plate was sealed with parafilm to prevent evaporation of the isopropanol. The plate is allowed to rest for 5-10 minutes in order to solubilize the precipitate. Purified water (100 μl) was added to each well. Absorbance was determined with an ELISA Reader instrument. Color intensity at 540 nm is proportional to viability of cells.
(§4) WI38 (ATCC No. CCL75) is a normal fibroblast line of lung diploid cells, MCF7 (ATCC No. HTB22) is a breast adenocarcinoma tumor cell line, SW480 (ATCC No. CCL228) is a colon adenocarcinoma tumor cell line, BMKC is a cloned melanoma line derived from Bowes melanoma line HMCB (ATCC No. CRL9607), H1299 (ATCC No. CRL5803) is a lung large cell carcinoma tumor line, HeLaS3 (ATCC No. CCL2.2) is a cervical epitheleal carcinoma tumor cell line, and PC3 (ATCC No. CRL1435) is a prostate adenocarcinoma tumor cell line.

[3] = system: Escherichia coli ATCC 25922; assay: Antimicrobial assay I, modified protocol (tryptic soy broth), MBC; details: minimum bactericidal concentration, Table 4
[4] = system: Stapholococcus aureus ATCC 25923; assay: as above; details: minimum bactericidal concentration, Table 4
[5] = system: Candida albicans ATCC 10231; assay: Antimicrobial assay I, modified protocol (tryptic soy broth), MFC; details: minimum fungicidal concentration, Table 4
[6] = system: Pseudomonas aeruginosa ATCC 9027; assay: Antimicrobial assay I, MIC by OD measurement; format: cell-based; details: for paerug9027 (MIC): 37° C. for 24 hours, absorbance 620 nm
fungal = assay: Presently preferred antifungal peptides, selected from the MIC/MBC data; format: cell-based; details: X = preferred
Source text: The peptide's “length” is the number of amino acid residues in the sequence.

[7] = system: Pseudomonas aeruginosa ATCC 27853; assay: Antimicrobial assay I, modified protocol (tryptic soy broth), MBC; details: minimum bactericidal concentration, Table 4
[8] = system: Staphylococcus aureus ATCC 6538; assay: Antimicrobial assay I, MIC by OD measurement; format: cell-based; details: 37° C. for 24 hours, absorbance 620 nm
[9] = system: yeast (Saccharomyces cerevisiae); assay: Antimicrobial assay I, yeast assay in RPMI 1640; format: cell-based; details: RPMI 1640 media
BMKC = assay: Anti-cancer assay, MTT, LD50; format: cell-based; details: BMKC cloned melanoma line, 24 hours with peptide
Source text: (§1) Numbers are LD50 values (μg/mL).

H1299 = assay: Anti-cancer assay, MTT, LD50; format: cell-based; details: 24 hours with peptide, lung large cell carcinoma
Source text: as §1

HeLaS3 = assay: Anti-cancer assay, MTT, LD50; format: cell-based; details: 24 hours with peptide, cervical carcinoma
Source text: as §1

MCF7 = assay: Anti-cancer assay, MTT, LD50; format: cell-based; details: MCF7 breast adenocarcinoma line, MTT, 24 hours with peptide
Source text: as §1

PC3 = assay: Anti-cancer assay, MTT, LD50; format: cell-based; details: 24 hours with peptide, prostate adenocarcinoma
Source text: as §1

SW480 = assay: Anti-cancer assay, MTT, LD50; format: cell-based; details: SW480 colon adenocarcinoma line, 24 hours with peptide
Source text: as §1

[10] = system: human red blood cells (RBC); assay: in vitro; format: cell-based; details: hemolytic assay, concentration at 50% hemolysis, 1 hour at 37° C.
[11] = system: hairless rat skin burn wound; assay: In vivo wound healing, TCA chemically induced skin burn wound; details: for Epidermal thickening / Fibroblast cells in test area / Inflammatory response area / Leukocyte cells in test area / Wound closure: rat model, TCA burn treated by peptide; for Wound closure: 26 days
Source text: The hairless rat was chosen as a suitable test model. Female hairless rats of 100 to 150 grams weight and 8 to 12 weeks age were used in the study.
As an alternative, 70% trichloroacetic (TCA) dissolved in 70% ethanol was employed to induce the dermal erosion patches. […] As the chemical burn agent, the TCA treatment inflicted on the rats far less trauma and mortality than occurred with the Phenol model.
The experimental Protocol procedure steps were as follows: • 1. The animal was anesthetized (40 mg/kg Phenobarbital). • 2. Color photographs of the animal's back (with six separate peels) were taken before each treatment and daily thereafter. • 3. Rat skin surface was prepared by wiping with 70% ethanol. Filter paper discs (1.1 cm diameter) were soaked in 70% TCA/ethanol. • 4. The discs were placed on the back of the hairless rat for 30 minutes [6 disks providing for 2 control (no peptide treatment) disks and 4 disks for peels to receive peptide treatment.] • 5. After a 30 minute burn the discs were removed. Twenty four hours later, different peptide solutions (1500 ppm in saline) were applied to four peels, and saline was applied to the two control peels. • 6. Peptide solutions (and saline for the controls) were applied to the six wounds with a soft brush each day thereafter. • 7. It took approximately one month for the wounds to heal (complete skin closure with stabilized epidermis), after which the animal was sacrificed. • 8. The treated skin was harvested, section stained with trichrome, and mounted on slides.
The percentage of wound closure for each peel (six sites) was measured each day until the animal was sacrificed. The percentage closure was determined by measuring on the animal photographs the area of the remaining scab relative to the area of the initial scar after the burn. These measurements were made by digitizing and analyzing the peels using the Sigma Plot ProScan 4 program.
This provided a measure of the post-TCA burn treatment of the inflammatory response in each peel site.
The extent of epidermal thickening (hyperkeratosis) at each site was also determined by measurement with the Sigma Plot program applied to the stained section slides of the various wound areas and the normal untreated skin (control) surrounding the peels. At magnifications of 100× to 320×, the microphotographs of the color slides provided a powerful tool for such quantification of the extent of hyperkeratosis evident in each peel.
Treatment of the section slides with selective stains produced identifiable evidence of the presence of both leukocyte and fibroblast cells in the wound areas. This was also quantified by the Sigma Plot program.
The above described animal model and protocols were employed in the testing of approximately 20 of the peptides listed in Table 48 (and other peptides for comparison) as preferred FLAK peptides for wound healing.

P. aeruginosa H374 = format: cell-based, Pseudomonas aeruginosa; details: for FIC Index: 0.5 or less = synergy
How it was run: (§2)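 Synergy against efflux-mutant strains: two-fold dilutions of nalidixic acid or chloramphenicol tested with peptide held at ¼ of its MIC.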

P. aeruginosa H774 = format: cell-based, Pseudomonas aeruginosa; details: P. aeruginosa H744; nalidixic acid + peptide at ¼ MIC; 0.5 or less = synergy
How it was run: as §2

P. aeruginosa = format: cell-based, Pseudomonas aeruginosa; details: P. aeruginosa H744; MIC of nalidixic acid with peptide at ¼ MIC
How it was run: as §2

[12] = pH 7, Table 26, valine substitution, read-out: Hemolysis RBC LD50
[13] = WI-38 LD50, Table 26, valine substitution
[14] = MTT, 24 hours with peptide, normal fibroblast line

Description for WI38: as §3, §4

Compound: FAKFLAKFLKKAL-NH2 [compound 111]
- Anti-cancer (preferred peptide) (cancer cell lines): X (Preferred anticancer peptides can be selected as having LD50 values of less than or equal to about 25 μg/ml)
- HC50 at 1 h (in vitro [1]; [12]): 5 µg/mL
- CC50 at 24 h (in vitro [2]; [13]): 25 µg/mL
- MBC E. coli A.25922 [3]: 30 µg/mL
- MBC S. aur A.25923 [4]: 40 µg/mL
- MFC Candida A.10231 [5]: INACT

Compound: VAKLLAKLAKKVL-NH2 [compound 154]
- P. aerug (MIC) [6]: 100 µg/mL
- HC50 at 1 h (in vitro [1]; [12]): 870 µg/mL
- HC50 at 1 h (in vitro [1]; pH 7, Table 27, read-out: Hemolysis (LD50)): 450 µg/mL
- Anti-fungal (preferred peptide) (fungal): X (Preferred antifungal peptides can be selected as having MIC or MBC values of less than or equal to about 25 μg/ml)
- WI38 LD50 (WI38; Table 27): 110 µg/mL
- CC50 at 24 h (in vitro [2]; [13]): 110 µg/mL
- MBC E. coli A.25922 [3]: 50 µg/mL
- MBC P. aerug A.27853 [7]: 100 µg/mL
- MBC S. aur A.25923 [4]: >250 µg/mL
- MFC Candida A.10231 [5]: 25 µg/mL

Compound: FAKKLAKLAKKLLAL-NH2 [compound 38]
- Anti-cancer (preferred peptide) (cancer cell lines): X (Preferred anticancer peptides can be selected as having LD50 values of less than or equal to about 25 μg/ml)
- HC50 at 1 h (in vitro [1]; [12]): 350 µg/mL
- CC50 at 24 h (in vitro [2]; [13]): 100 µg/mL
- MBC E. coli A.25922 [3]: 15 µg/mL
- MBC P. aerug A.27853 [7]: 30 µg/mL
- MBC S. aur A.25923 [4]: 15 µg/mL

Compound: MPKEKVFLKIEKMGRNIRN-NH2 [P107, reference compound]
- paerug9027 (MIC) [6]: > (> indicates greater than 200 μg/mL)
- staph6538 (MIC) [8]: > (> indicates greater than 200 μg/mL)
- yeast (MIC or MFC) [9]: > (> indicates greater than 200 μg/mL)
- LD50 BMKC (BMKC): > (> indicates greater than 1000)
- H1299 LD50 (H1299): > (> indicates greater than 1000)
- HeLaS3 LD50 (HeLaS3): > (> indicates greater than 1000)
- LD50 MCF7 (MCF7): > (> indicates greater than 1000)
- PC3 LD50 (PC3): > (> indicates greater than 1000)
- LD50 SW480 (SW480): > (> indicates greater than 1000)
- LD50 [10]: > (> indicates greater than 1000)
- rate of wound closure ([11]; hairless rat, full wound closure at 26 days): small advantage in rate of wound closure over the other peptides and no peptide
- ability to limit post-TCA burn inflammatory responses ([11]; hairless rat, peptide solutions 1500 ppm in saline, topical daily): superior in this respect
- hyperkeratosis (epidermal thickening) ([11]; hairless rat, peptide solutions 1500 ppm in saline, topical daily, listed as SEQ ID NO:71): lowest evidence of hyperkeratosis (epidermal thickening); also recorded: substantially no hyperkeratosis as compared to the TCA burn untreated control
- Epidermal thickening [11]: 33 % of control (TCA only)
- Fibroblast cells in test area [11]: 420 % of normal skin
- Inflammatory response area [11]: 0 % of healed scar
- Leukocyte cells in test area [11]: 400 % of normal skin
- Wound closure [11]: 100 % of initial wound
- WI38 LD50 (WI38; [14]): > (> indicates greater than 1000)
- LD50 WI38 (WI38; WI38 normal lung fibroblast line, MTT, 24 hours with peptide): > (> indicates greater than 1000)

Compound: KWKLFKKKTKLFKKFAKKLAKKL-OH [compound 81]
- Anti-cancer (preferred peptide) (cancer cell lines): X (Preferred anticancer peptides can be selected as having LD50 values of less than or equal to about 25 μg/ml)

Compound: FALALKALKKL-NH2 [compound 165]
- HC50 at 1 h (in vitro [1]; [12]): 350 µg/mL
- Anti-fungal (preferred peptide) (fungal): X (Preferred antifungal peptides can be selected as having MIC or MBC values of less than or equal to about 25 μg/ml)
- CC50 at 24 h (in vitro [2]; [13]): 850 µg/mL
- MBC E. coli A.25922 [3]: 10 µg/mL
- MBC P. aerug A.27853 [7]: 25 µg/mL
- MBC S. aur A.25923 [4]: 25 µg/mL
- MFC Candida A.10231 [5]: 10 µg/mL

Compound: VAKALKALLKALKAL-NH2 [compound 501]
- Anti-cancer (preferred peptide) (cancer cell lines): X (Preferred anticancer peptides can be selected as having LD50 values of less than or equal to about 25 μg/ml)
- HC50 at 1 h (in vitro [1]; [12]): 15 µg/mL
- CC50 at 24 h (in vitro [2]; [13]): 26 µg/mL

Compound: CC[C@H](C)[C@H](N)C(=O)N[C@@H](CC(C)C)C(=O)N1CCC[C@H]1C(=O)N[C@@H](Cc1c[nH]c2ccccc12)C(=O)N[C@@H](CCCCN)C(=O)N[C@@H](Cc1c[nH]c2ccccc12)C(=O)N1CCC[C@H]1C(=O)N[C@@H](Cc1c[nH]c2ccccc12)C(=O)N[C@@H](Cc1c[nH]c2ccccc12)C(=O)N1CCC[C@H]1C(=O)N[C@@H](Cc1c[nH]c2ccccc12)C(=O)N[C@@H](CCCNC(=N)N)C(=O)N[C@@H](CCCNC(=N)N)C(=O)O [compound 91]
- Anti-cancer (preferred peptide) (cancer cell lines): X (Preferred anticancer peptides can be selected as having LD50 values of less than or equal to about 25 μg/ml)

Compound: VAKLLAKALKKLL-NH2 [compound 506]
- Anti-cancer (preferred peptide) (cancer cell lines): X (Preferred anticancer peptides can be selected as having LD50 values of less than or equal to about 25 μg/ml)
- HC50 at 1 h (in vitro [1]; [12]): 120 µg/mL
- CC50 at 24 h (in vitro [2]; [13]): 75 µg/mL

Compound: FAKLLAKALKKAL-NH2 [P102, FAKLLAKALKKAL-NH2]
- paerug9027 (MIC) [6]: 10 µg/mL
- staph6538 (MIC) [8]: 5 µg/mL
- yeast (MIC or MFC) [9]: 50 µg/mL
- LD50 BMKC (BMKC): 60 µg/mL
- H1299 LD50 (H1299): 27 µg/mL
- HeLaS3 LD50 (HeLaS3): 43 µg/mL
- LD50 MCF7 (MCF7): 60 µg/mL
- PC3 LD50 (PC3): 66 µg/mL
- LD50 SW480 (SW480): 57 µg/mL
- HC50 at 1 h (in vitro [1]; pH 7, hemolytic assay, concentration at 50% hemolysis, 1 hour at 37° C., read-out: LD50): 500 µg/mL
- MIC Cm-comb. (P. aeruginosa H374; MIC of chloramphenicol with peptide at ¼ MIC): 16 µg/mL
- MIC Nal-comb. (P. aeruginosa H374; MIC of nalidixic acid with peptide at ¼ MIC): 5000 µg/mL
- FIC Index (P. aeruginosa H374; chloramphenicol + peptide at ¼ MIC): 1.25
- FIC Index (P. aeruginosa H374; nalidixic acid + peptide at ¼ MIC, FIC=0.25+MIC comb/MIC alone): 1.25
- FIC Index (P. aeruginosa H774): 1.25
- MIC Nal-comb. (P. aeruginosa): 624 µg/mL
- Epidermal thickening [11]: 50 % of control (TCA only)
- Fibroblast cells in test area [11]: 220 % of normal skin
- Inflammatory response area [11]: 27 % of healed scar
- Leukocyte cells in test area [11]: 370 % of normal skin
- Wound closure [11]: 96.7 % of initial wound
- WI38 LD50 (WI38; [14]): 73 µg/mL
- CC50 at 24 h (in vitro [2]; LD50 WI38, WI38 normal lung fibroblast line, MTT, 24 hours with peptide): 73 µg/mL

Compound: KWKLFKKALKKLKKALKKAL-NH2 [compound 104]
- Anti-cancer (preferred peptide) (cancer cell lines): X (Preferred anticancer peptides can be selected as having LD50 values of less than or equal to about 25 μg/ml)
